In US12358918B2, “Aryl hydrocarbon receptor (AHR) activator compounds as cancer therapeutics” (THE BROAD INSTITUTE, INC., priority 2018, dated 2025):
“Also recorded” adds a separate entry of the source.

Experiments:
[1] = system: MDA-MB-468 and ZR51 breast cancer and JHH7 liver cancer cell lines
[2] = system: 578 cancer cell lines; test: PRISM multiplexed cellular viability screening; assay type: cell-based; conditions: relation to FOXA1 / FOXA1 target expression across cell lines
Experimental: The instant discovery was made using large-scale multiplex profiling of existing drugs against 578 cancer cell lines, employing a PRISM multiplexed cellular viability assay.
Parental cell lines were obtained from the Cancer Cell Line Encyclopedia (CCLE) project (1). PRISM cell line barcoding, pooling, and screening was performed as previously described with several improvements to the original method (2). First, the lentiviral vector was modified to encode the unique barcode identifier at the end of the puromycin resistance gene. This enables barcodes to be detected using a variant of the mRNA capture and Luminex detection method developed for the L1000 gene expression assay (3). Second, a set of ten inert barcodes were spiked-in to each well of each plate after cell lysis to control for variation in PCR amplification as detailed below.
Luminex technology produced .Ixb files containing data for each Luminex bead observed during detection. These .Ixb files were processed to compute Median Fluorescence Intensity (MFI) values, calculated as the median of the values obtained for all beads corresponding to a single PRISM barcode.
MFI values were log-transformed (log MFI) and used to perform basic quality control. To detect probable screening artifacts, log MFI values were centered to the median log MFI for each cell line on each plate in order to put the measurements from each cell line on the same scale. For each well on each plate, the median of these centered values was then standardized according to the global median and global MAD across all plate wells in the same position. Data from wells with a standardized score of greater than 5 or less than −5 were excluded from all further processing steps.
For each cell line on each plate, the distribution of MFI values observed for the DMSO-treated negative controls was compared to that of the positive controls using a robust form of the Strictly Standardized Mean Difference (SSMD*)′. Specifically, SSMD* was calculated as: […]
Data corresponding to SSMD values less than 2 were removed before calculating cell viability.
The data in the instant disclosure were produced according to two different screening protocols. In the PR500 protocol, ten inert barcodes were spiked-in to each well of each plate after cell lysis. For data produced using the PR500 protocol, normalized MFI (nMFI) values were computed by taking the ratio of each MFI value against the median of the inert barcodes within each well. […]
Cell viability was calculated as the ratio of nMFI to the median of the nMFI from the DMSO-treated negative controls for each cell line on each plate. […] The final viability values were calculated as the median of the batch-corrected cell viabilities from biological replicates for each cell line, compound and dose. […]

[3] = target: recombinant human Adenosine A2A (FAST-002C) receptor (Homo sapiens, UniProt P29274); test: cAMP HTRF assay, Adenosine A2A receptor, antagonist mode; assay type: cell-based
[4] = system: MDA-MB-468 breast cancer cells; test: Western immunoblot of treated cells over 24 hours; assay type: cell-based; conditions: FIG. 18
Experimental: Adherent cells were washed once with cold 1×PBS (Corning #01018002) and lysed with RIPA buffer (Sigma #R0278) supplemented by protease and phosphatase inhibitors (Sigma). Protein content was quantified using the DC Protein Assay (BioRad #5000111). Samples were reduced with (loading buffer) and boiled at 95° C. before being resolved by SDS gel electrophoresis on 4-20% Tris/glycine gels (Invitrogen). Proteins were transferred using the IBlot2 (Thermo #IB21001) onto the iBlot™ 2 nitrocellulose Transfer Stacks (Thermo #IB23001). The membranes were then blocked in Odyssey Blocking Buffer (Li-COR #927-40000) for one hour, and then probed overnight with primary antibodies diluted in blocking buffer. The following day, membranes were washed 3×5 mins with 1×TBST and then probed with LiCOR Infrared secondary antibodies for 1 hour at room temperature. Membranes were washed an additional 3×5 mins in 1×TBST and then imaged using the LiCOR Imager. […]

recombinant human Adenosine A2A (FAST-002C) receptor, sequence (P29274 whole entry): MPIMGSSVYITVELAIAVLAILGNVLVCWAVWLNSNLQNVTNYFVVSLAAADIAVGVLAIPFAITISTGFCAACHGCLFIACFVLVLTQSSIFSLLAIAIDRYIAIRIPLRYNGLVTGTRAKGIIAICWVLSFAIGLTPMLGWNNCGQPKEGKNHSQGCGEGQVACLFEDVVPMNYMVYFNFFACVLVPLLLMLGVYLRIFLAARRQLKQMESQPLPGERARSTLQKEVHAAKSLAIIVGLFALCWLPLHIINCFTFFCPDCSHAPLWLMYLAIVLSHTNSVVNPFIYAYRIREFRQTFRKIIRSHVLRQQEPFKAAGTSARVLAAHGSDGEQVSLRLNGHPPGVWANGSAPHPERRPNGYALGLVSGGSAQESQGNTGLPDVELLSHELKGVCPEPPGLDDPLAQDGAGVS

For `Nc1nc2ccc(Cl)cc2c2nc(-c3ccco3)nn12` [CGS-15943, reference compound], the “AHR-dependence of the cytotoxic response” value [1] was “dependence upon AHR”, the “cell killing profile in PRISM” value [2] was “cell killing profile specific for such FOXA1-dependent cancer cell lines; also recorded: selective killing of FOXA1-high cancer cell lines” and the inhibition at 10 µM ([3]; HEK293, read-out: % Inhibition Average at maximal concentration) was 125%. For the same compound, the “Hill Coefficient” value ([3]; antagonist mode dose-response fit) was 1.25, the CYP1A1 expression ([4]; 24 hour time course) was “induced CYP1A1 expression” and the FOXA1 levels ([4]; 24 hour time course) was “maintenance of FOXA1 levels”. The “DNA double stranded breaks (pH2A.X) and PARP cleavage” value ([4]; within 24 hours) was “induced DNA double stranded breaks and PARP cleavage”.
